Experimental data: patent publication US20140343049A1, “DIHYDROFURAN DERIVATIVES AS INSECTICIDAL COMPOUNDS” (SYNGENTA PARTICIPATIONS AG, priority 2011, published 2014)

How the values were obtained:
Format in all cases: in vivo
[1] = tested on: Spodoptera littoralis (Egyptian cotton leafworm); assay: Spodoptera littoralis cotton leaf disc spray test; details: foliar, 72 h, cotton leaf discs sprayed at 200 ppm, 5 L1 larvae, mortality, feeding behavior, growth regulation 3 days after treatment
Excerpt: Cotton leaf discs were placed on agar in a 24-well microtiter plate and sprayed with test solutions at an application rate of 200 ppm. After drying, the leaf discs were infested with 5 L1 larvae. The samples were checked for mortality, feeding behavior, and growth regulation 3 days after treatment (DAT).

[2] = tested on: Tetranychus urticae (two-spotted spider mite); assay: Tetranychus urticae bean leaf disc spray test; details: foliar, 192 h, bean leaf discs sprayed at 200 ppm, mixed ages, egg, larval and adult mortality 8 days later
Excerpt: Bean leaf discs on agar in 24-well microtiter plates were sprayed with test solutions at an application rate of 200 ppm. After drying, the leaf discs are infested with mite populations of mixed ages. 8 days later, discs are checked for egg mortality, larval mortality, and adult mortality. […]

[3] = tested on: Plutella xylostella (diamond back moth); assay: Plutella xylostella L2 larvae test on artificial diet; details: 144 h, 200 ppm (concentration in well 18 ppm), 6 days, larval mortality and growth regulation
Method: 24-well microtiter plate (MTP) with artificial diet was treated with test solutions at an application rate of 200 ppm (concentration in well 18 ppm) by pipetting. After drying, the MTPs were infested with L2 larvae (7-12 per well). After an incubation period of 6 days, samples were checked for larval mortality and growth regulation.

[4] = tested on: Diabrotica balteata (corn root worm); assay: Diabrotica balteata L2 larvae test on artificial diet; details: 120 h, 200 ppm (concentration in well 18 ppm), 5 days, larval mortality and growth regulation
Method: A 24-well microtiter plate (MTP) with artificial diet was treated with test solutions at an application rate of 200 ppm (concentration in well 18 ppm) by pipetting. After drying, the MTPs were infested with L2 larvae (6-10 per well). After an incubation period of 5 days, samples were checked for larval mortality and growth regulation.
A 24-well microtiter plate (MTP) with artificial diet was treated with test solutions at an application rate of 12.5 ppm (concentration in well 18 ppm) by pipetting. After drying, the MTP's were infested with L2 larvae (6-10 per well). After an incubation period of 5 days, samples were checked for larval mortality and growth regulation.

[5] = tested on: Heliothis virescens (tobacco budworm); assay: Heliothis virescens egg test on artificial diet; details: 96 h, 200 ppm (concentration in well 18 ppm), eggs 0-24 h old, 4 days, egg mortality, larval mortality, growth regulation
Method: Eggs (0-24 h old) were placed in 24-well microtiter plate on artificial diet and treated with test solutions at an application rate of 200 ppm (concentration in well 18 ppm) by pipetting. After an incubation period of 4 days, samples were checked for egg mortality, larval mortality, and growth regulation.

[6] = tested on: Thrips tabaci (onion thrips); assay: Thrips tabaci sunflower leaf disc spray test; details: foliar, 168 h, sunflower leaf discs sprayed at 200 ppm, mixed ages, mortality after 7 days
Method: Sunflower leaf discs were placed on agar in a 24-well microtiter plate and sprayed with test solutions at an application rate of 200 ppm. […] After drying, the leaf discs were infested with a thrip population of mixed ages. After an incubation period of 7 days, samples were checked for mortality.

Measured: pest or weed control at 200 ppm

Cc1cc(C2=CC(c3cc(Cl)cc(Cl)c3)(C(F)(F)F)OC2)ccc1C(=O)NCC(F)(F)F (stereo not shown) [Compound A3]
not listed: [6]
≥ 80%: all other assays above

C#CC1(NC(=O)c2ccc(C3=CC(c4cc(Cl)cc(Cl)c4)(C(F)(F)F)OC3)cc2C)CCCCC1 (stereo not shown) [Compound A30]
≥ 80%: [6] | [2] | [3] | [4]

Cc1cc(C2=CC(c3cc(Cl)cc(Cl)c3)(C(F)(F)F)OC2)ccc1C(=O)NCCC1OCCO1 (stereo not shown) [Compound A31]
not listed: [5]
≥ 80%: all other assays above

Cc1cc(C2=CC(c3cc(Cl)cc(Cl)c3)(C(F)(F)F)OC2)ccc1C(=O)NCc1cccnc1 (stereo not shown) [Compound A35]
not listed: [6]
≥ 80%: all other assays above

Cc1cc(C2=CC(c3cc(Cl)cc(Cl)c3)(C(F)(F)F)OC2)ccc1C(=O)NC(C)c1ccccc1 (stereo not shown) [Compound A38]
≥ 80%: [1] | [2] | [3] | [5]

CSCCNC(=O)c1ccc(C2=CC(c3cc(Cl)cc(Cl)c3)(C(F)(F)F)OC2)cc1C (stereo not shown) [Compound A49]
not listed: [6]
≥ 80%: all other assays above

Cc1cc(C2=CC(c3cc(Cl)cc(Cl)c3)(C(F)(F)F)OC2)ccc1C(=O)NCc1ccc(Cl)nc1 (stereo not shown) [Compound A52]
≥ 80%: [1] | [2] | [3] | [5]

Cc1cc(C2=CC(c3cc(Cl)cc(Cl)c3)(C(F)(F)F)OC2)ccc1C(=O)Nc1cccc2ncccc12 (stereo not shown) [Compound A57]
not listed: [6]
≥ 80%: all other assays above

Cc1cc(C2=CC(c3cc(Cl)cc(Cl)c3)(C(F)(F)F)OC2)ccc1C(=O)Nc1cccc(F)c1 (stereo not shown) [Compound A59]
≥ 80%: [1] | [6] | [3] | [5]

Cc1cc(C2=CC(c3cc(Cl)cc(Cl)c3)(C(F)(F)F)OC2)ccc1C(=O)NCC1CCS1 (stereo not shown) [Compound A80]
not listed: [6]
≥ 80%: all other assays above

Cc1cc(C2=CC(c3cc(Cl)cc(Cl)c3)(C(F)(F)F)OC2)ccc1C(=O)NCC1CCS1(=O)=O (stereo not shown) [Compound A81]
not listed: [6]
≥ 80%: all other assays above

CCNC(=O)c1ccc(C2=CC(c3cc(Cl)cc(Cl)c3)(C(F)(F)F)OC2)nc1C (stereo not shown) [Compound C2]
not listed: [5]
≥ 80%: all other assays above

COCC(C)NC(=O)c1ccc(C2=CC(c3cc(Cl)cc(Cl)c3)(C(F)(F)F)OC2)nc1C (stereo not shown) [Compound C4]
≥ 80%: [1] | [6]

CCC(C)NC(=O)c1ccc(C2=CC(c3cc(Cl)cc(Cl)c3)(C(F)(F)F)OC2)nc1C (stereo not shown) [Compound C7]
not listed: [2]
≥ 80%: all other assays above

Cc1nc(C2=CC(c3cc(Cl)cc(Cl)c3)(C(F)(F)F)OC2)ccc1C(=O)NCc1ccc(Cl)nc1 (stereo not shown) [Compound C14]
not listed: [6]
≥ 80%: all other assays above

Cc1nc(C2=CC(c3cc(Cl)cc(Cl)c3)(C(F)(F)F)OC2)ccc1C(=O)NC1CC2CCC1C2 (stereo not shown) [Compound C20]
not listed: [2]
≥ 80%: all other assays above

Cc1nc(C2=CC(c3cc(Cl)cc(Cl)c3)(C(F)(F)F)OC2)ccc1C(=O)NC1CCC1 (stereo not shown) [Compound C21]
not listed: [2]
≥ 80%: all other assays above

Cc1cc(C2=CC(c3cc(Cl)cc(Cl)c3)(C(F)(F)F)OC2)ccc1C(=O)NC1CC2CCC1C2 (stereo not shown) [Compound D22]
≥ 80%: [6] | [3] | [4]

Cc1cc(C2=CC(c3cc(Cl)cc(Cl)c3)(C(F)(F)F)OC2=O)ccc1C(=O)NCC(=O)NCC(F)(F)F (stereo not shown) [Compound E5]
not listed: [6]
≥ 80%: all other assays above

Cc1cc(C2=CC(c3cc(Cl)cc(Cl)c3)(C(F)(F)F)OC2=O)ccc1C(=O)NC1CCC1 (stereo not shown) [Compound E18]
≥ 80%: [6]

O=C(NC1CS(=O)(=O)C1)c1ccc(C2=CC(c3cc(Cl)cc(Cl)c3)(C(F)(F)F)OC2)nc1Cl (stereo not shown) [Compound F2, 2-Chloro-6-[5-(3,5-dichloro-phenyl)-5-trifluoromethyl-2,5-dihydro-furan-3-yl]-N-(1,1-dioxo-1lambda*6*-thietan-3-yl)-nicotinamide]
≥ 80%: [1] | [2] | [3] | [5]
